We go through two compounds from ChEMBL document CHEMBL1201862, “PubChem BioAssay data set” (2004).

What all share (experiment): NCI-60 cell line screen, 48 h
Assay [1] concerns A549.
In assay [2] the test system is NCI/ADR-RES.
The subject of assay [3] is T47D.
Assay [4] relates to COLO 205.
In assay [5] the test system is PC-3.
For assay [6], the system named is OVCAR-4.
Assay [7] deals with HCC 2998.
The test system of assay [8] is DU-145.
The subject of assay [9] is RPMI-8226.
Assay [10] deals with BT-549.
Assay [11] concerns UACC-62.
Assay [12] relates to SF-268.
For assay [13], the system named is EKVX.
Assay [14] has as its system LOX IMVI.
In assay [15] the test system is SK-OV-3.
In assay [16] the test system is DMS-114.
For assay [17], the system named is MDA-N.
In assay [18] the test system is ACHN.
The test system of assay [19] is UO-31.
Assay [20] has as its system U-251.

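In this assay, cells in 96-well plates receive the compound at five concentrations for 48 hours. Endpoints are linearly interpolated between the surrounding concentrations. GI50: concentration for 50% inhibition of growth.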 Calls of active or inactive are those of the source. No stated cut-off is given here; in the data, active = GI50 up to about 1.1 µM and inactive = higher.

For the compound `Cc1cc(NC(=O)NC(=O)c2ccccc2NC(=O)CN(C)C)ccc1Oc1ncc(Br)cn1`, the GI50 in [1] is 3540 nM (inactive); in assay [2], 1050 nM (active); in assay [3], > 100000 nM (inactive); in [4] it was 2380 nM (inactive); in assay [5], 1080 nM (active); in assay [6] it was 71300 nM (inactive). In addition, the GI50 is 1220 nM (inactive) in [7]; 2410 nM (inactive) in [8]; 10400 nM (inactive) in assay [9]; > 100000 nM (inactive) in [10]; 2210 nM (inactive) in [11]; 10000 nM (inactive) in [12]. Also, the GI50 in [13] was 12900 nM (inactive); in [14], 9980 nM (inactive); in assay [15], 2810 nM (inactive); in assay [16] it was 3070 nM (inactive); in [17], 221 nM (active); in [18], 18000 nM (inactive). Moreover, the GI50 in assay [19] was 8550 nM (inactive); in assay [20], 3920 nM (inactive).
As for `C[C@@H]1O[C@@H](O[C@H]2CC[C@]3(C=O)[C@H]4CC[C@]5(C)[C@@H](c6ccc(=O)oc6)CC[C@]5(O)[C@@H]4CC[C@]3(O)C2)[C@H](O)[C@H](O)[C@H]1O[C@@H]1O[C@H](CO)[C@@H](O)[C@H](O)[C@H]1O` [HELLEBRIN], the GI50 in assay [2] is 15.2 nM (active); in [3] it was 16.6 nM (active); in assay [4], 27.1 nM (active); in assay [5], 9.38 nM (active); in [6], 7.43 nM (active); in assay [7] it was 36.5 nM (active). Further, the GI50 in [8] is 2.65 nM (active); in assay [9] it was 37.5 nM (active); in assay [10] it was 5.09 nM (active); in assay [11], 27 nM (active); in assay [12], 37.5 nM (active); in [13], 7.5 nM (active). Also, the GI50 in [14] was 16.6 nM (active); in assay [15] it was 22.6 nM (active); in assay [16], 2.08 nM (active); in assay [17], 22.3 nM (active); in assay [18] it was 4.23 nM (active); in assay [19] it was 18.6 nM (active). Further, in assay [20], the GI50 is 22.3 nM (active).
